Test results: patent US20080253996A1, “Use of Sdf-1 for the Treatment and/or Prevention of Neurological Diseases” (LABORATORIES SERONO SA, priority 2005, published 2008)

Assays:
Format in all cases: in vivo, rat
STZ-rats [1] = assay: Von Frey filament test in STZ diabetic rats; conditions: day 20 post-STZ; SDF-1α 10, 30, 100 μg/kg, IL-6 10 μg/kg s.c.
Description: (§1) Eight week-old male Sprague Dawley rats (Janvier, Le Genest Saint Isle, France) were randomly distributed in 6 experimental groups (n=10) as shown below.
(§2) Diabetes was induced by intravenous injection of a buffered solution of streptozotocin (Sigma, L'Isle d'Abeau Chesnes, France) at a dose of 55 mg/kg. STZ was prepared in 0.1 mol/l citrate buffer pH 4.5. The control group received an equivalent volume of citrate buffer. The day of STZ injection was considered as D0.
(§3) Treatment with SDF-1α with IL-6 or their matched vehicle was performed on daily basis from D11 to D40.
The rat was placed on a metallic grid floor. The nociceptive testing was done by inserting the Von Frey filament (Bioseb, France) through the grid floor and applying it to the plantar surface of the hind paw. A trial consisted of several applications of the different von Frey filaments (at a frequency of 1-1.5 s). The Von Frey filaments were applied from filament 10 g to 180 g. The pressure that produces a brisk withdrawal of hind paw was considered as threshold value. Cuttoff value was set to 180 g.

[2] = Body weight in streptozotocin (STZ) diabetic rats; conditions: daily s.c. D11 to D40 post-STZ; SDF-1α 10, 30, 100 μg/kg, IL-6 10 μg/kg
Description: as §1
as §2, with “Control” for “The control”
(§4) Treatment with SDF-1α, with IL-6 or their matched vehicle was performed on daily basis from D11 to D40.

STZ-rats [3] = assay: Hot plate 52° C. test in STZ diabetic rats; conditions: D40 post-STZ, SDF-1α 10, 30, 100 μg/kg, IL-6 10 μg/kg s.c.
Description: as §1, §2, §3
The animal was placed into a glass cylinder on a hot plate adjusted to 52° C. The latency of the first reaction was recorded (licking, brisk movement of the paws, little leaps or a jump to escape the heat) with a cutoff time of 30 s.

STZ-rats [4] = assay: STZ diabetic neuropathy, electromyography (CMAP latency, SNCV); conditions: D25 post-STZ (similar profile at D40), IL-6 10 μg/kg s.c.; for sensory nerve conduction velocity (SNCV) of diabetic rats: SDF-1α 10, 30, 100 μg/kg (best effect 10 and 30 μg/kg); for CMAP latency of diabetic rats vs vehicle-treated diabetic rats: SDF-1α 10, 30, 100 μg/kg
Description: as §1
as §2, with “Control” for “The control”
as §4
Planning of Experiments • Day −7: baseline (EMG) • Day 0: induction by the streptozotocin • Day 7: glycemia monitoring • Day 11: Onset of the treatment • Day 20: Von Frey test • Day 25: EMG monitoring • Day 40: EMG monitoring and HP 52° C. test • Day 41: sciatic nerves and skin biopsy samples were taken off for the histomorphometric analysis.
Electrophysiological recordings were performed using electromyograph (Keypoint, Medtronic, Boulogne-Billancourt, France). Rats were anaesthetized by intraperitoneal injection (IP) of 60 mg/kg ketamine chlorhydrate (Imalgene 500®, Rhône Mérieux, Lyon. France) and 4 mg/kg xylazin (Rompum 2%, Bayer Pharma, Kiel, Germany). The normal body temperature was maintained at […] with a heating lamp and controlled by a contact thermometer (Quick, Bioblock Scientific, Illkirch, France) placed on the tail surface.
Compound muscle action potential (CMAP) was recorded in the gastrocnemius muscle after stimulation of the sciatic nerve. A reference electrode and an active needle were placed in the hindpaw. A ground needle was inserted on the lower back of the rat. Sciatic nerve was stimulated with a single 0.2 ms pulse at a supramaximal intensity. The velocity of the motor wave was recorded.
Sensitive nerve conduction velocity (SNCV) was also recorded. The tail skin electrodes were placed as follows: a reference needle inserted at the base of the tail and an anode needle placed 30 mm away from the reference needle towards the extremity of the tail. A ground needle electrode was inserted between the anode and reference needles. The caudal nerve was stimulated with a series of 20 pulses (for 0.2 ms) at an intensity of 12.8 mA. The velocity was expressed in m/s.
Global analysis of the data was performed using one factor or repeated measure analysis of variance (ANOVA) and one-way ANOVA. When ANOVA indicated significant difference, Fisher Protected Least Significant Difference was used as post-hoc test to compare experimental groups with the group of diabetic rats treated with the vehicle. The level of significance was set at p≦0.05. Results are expressed as mean ±standard error of the mean (s.e.m.).

Row | Substance | threshold value in Von Frey test vs vehicle-treated diabetic rats (STZ-rats [1]) | body weight of diabetic rats [2] | threshold latency in the hot plate test (STZ-rats [3]) | sensory nerve conduction velocity (SNCV) of diabetic rats (STZ-rats [4]) | CMAP latency of diabetic rats vs vehicle-treated diabetic rats (STZ-rats [4])
1 | SDF-1α: Human recombinant chemokine SDF-1α (SEQ ID NO: 1), produced in house, expressed in E. Coli cells | significant increase | slight but significant increase | significantly lowered | significantly improved | significant reduction
2 | IL-6: reference (positive) control compound in nerve crush and STZ models [reference compound] | significant increase | slight but significant increase | significantly lowered | significantly improved | significant reduction
